Measured values: US9241923B2, “Methods for promoting neuronal development and/or health” (Mead Johnson Nutrition Company, priority 2013, dated 2016)

System: human adipose derived stem cells (hADSCs)
Assay: neurogenesis / neuronal differentiation of hADSCs judged by neuronal morphology under phase contrast microscopy
Type: cell-based
Procedure: hADSCs were purchased from Invitrogen, also known as Life Technologies, of Carlsbad, Calif., U.S.A., and were cultured as near confluent monolayers in 100 mm culture plates within a maintenance media consisting of Complete MesenPro RS medium with growth supplement and L-glutamine obtained from Invitrogen®. The process of culturing, passage, and seeding the hADSCs is described below.
The subculture of hADSCs was performed when cell culture reached confluence. To passage hADSCs, the following procedure is used: i) aspirate the Complete MesenPRO RS medium from the cells; ii) rinse the surface area of the cell layer with Dulbecco's phosphate buffered saline (DBPS) buffer by adding the DPBS to the side of the vessel opposite the attached cell layer and rocking the vessel back and forth several times; iii) remove the DPBS by aspiration and discard; iv) detach the cells by adding a sufficient volume of pre-warmed trypsin-EDTA solution without phenol red to cover the cell layer; v) incubate at 37° C. for approximately 7 minutes; vi) observe the cells under a microscope to determine if additional incubation is needed; vii) add 3 mL of the maintenance media to the plate, mix the cell suspension, add the suspension to a 15 mL centrifuge tube and centrifuge at 210 g for 5 minutes; viii) determine the total number of cells and percent viability using a hemacytometer; ix) add Complete MesenPRO RS medium to each vessel so that the final culture volume is 0.2 mL-0.5 mL per cm^2; x) seed the cells by adding the appropriate volume of cells to each vessel and incubate at 37° C., 5% CO2 and 90% humidity; and xi) three or four days after seeding, completely remove the medium and replace with an equal volume of Complete MesenPRO RS medium.
Before seeding the passaged hADSCs on fresh culture plates, the surfaces of the culture ware are washed with sterile DPBS solution three times, followed by multiple rinses with sterile water. The first layer of coating is poly-L-ornithine. The coating is prepared by adding about 15 to about 20 µg/mL of poly-L-ornithine and incubating at 37° C. for one hour. The plate is washed three times with DPBS, 15 minutes per wash. The second layer of coating is bovine plasma fibronectin. The fibronectin is diluted in DPBS from stock to 1:1000 and 500 μL is added to each well. The plate is left at room temperature for one hour. One final wash with 500 μL per well of DPBS is performed and the plate is used immediately.
The cells were then subjected to removal and reseeded at a density of 2×10^4 cells/ml (1×10^4 cells/well) onto 24-well culture plates that contained a poly-L-ornithine and bovine plasma fibronectin coating.
Three days after seeding and priming; the culture medium was changed into neuronal differentiation medium. […]

**Q.** For `O=C(O)CCCCC1CCSS1` (stereo not drawn) [ALA, Alpha-lipoic acid], which “neurite outgrowth compared with DHA” value (ALA 5 μg/ml vs DHA 20 μM, FIG. 2C vs FIG. 2B) is on record?
**A.** Its value is “robust ability to promote neurogenesis in terms of neurite outgrowth”.

**Q.** What about the “neurogenesis (neuronal morphology displayed by the hADSCs)” value (ALA at 5 μg/ml, phase contrast microscopy at 3 hours and 24 hours, vs negative control (no treatment), FIG. 2C) of the same molecule?
**A.** Its value is “strong effect to enhance neurogenesis”.

**Q.** What about the “cell death (cellular toxicity) as compared to DHA” value (wells treated with ALA 5 μg/ml vs DHA 20 μM, hADSCs) of the same molecule?
**A.** Its value is “less cell death overall”.

**Q.** `CC/C=C\C/C=C\C/C=C\C/C=C\C/C=C\C/C=C\CCC(=O)O` [DHA, docosahexanoic acid, reference compound] was tested. Which “neuronal morphology of hADSCs” value (DHA at 20 μM (positive control), vs negative control, FIG. 2B) did it give?
**A.** The value was “enhanced neuronal morphology of hADSCs”.
